From ChEMBL document CHEMBL4825770, “KRAS Mutant Combination Therapy for the Effective Treatment of Cancer” (ACS Med Chem Lett, 2021)

Tests used:
Format in all cases: functional
NCI-H1792 [1] = assay: Cytotoxicity against human NCI-H1792 cells harboring KRAS G12C mutant assessed as reduction in cell viability measured after 72 hrs by CellTiter-Glo luciferase-based ATP detection assay; settings: NCI-H1792, 72 h
NCI-H1373 [2] = assay: Cytotoxicity against human NCI-H1373 cells harboring KRAS G12C mutant assessed as reduction in cell viability measured after 72 hrs by CellTiter-Glo luciferase-based ATP detection assay; settings: NCI-H1373, 72 h
NCI-H2122 [3] = assay: Cytotoxicity against human NCI-H2122 cells harboring KRAS G12C mutant assessed as reduction in cell viability measured after 72 hrs by CellTiter-Glo luciferase-based ATP detection assay; settings: NCI-H2122, 72 h
NCI-H23 [4] = assay: Cytotoxicity against human NCI-H23 cells harboring KRAS G12C mutant assessed as reduction in cell viability measured after 72 hrs by CellTiter-Glo luciferase-based ATP detection assay; settings: NCI-H23, 72 h
NCI-H358 [5] = assay: Cytotoxicity against human NCI-H358 cells harboring KRAS G12C mutant assessed as reduction in cell viability measured after 72 hrs by CellTiter-Glo luciferase-based ATP detection assay; settings: NCI-H358, 72 h
NCI-H358 [6] = assay: Cytotoxicity against human NCI-H358 cells harboring KRASG12C mutant assessed as reduction in cell viability measured after 72 hrs in presence of compound 1 by CellTiter-Glo luciferase-based ATP detection assay; settings: NCI-H358, 72 h
NCI-H2122 [7] = assay: Cytotoxicity against human NCI-H2122 cells harboring KRASG12C mutant assessed as reduction in cell viability measured after 72 hrs in presence of compound 1 by CellTiter-Glo luciferase-based ATP detection assay; settings: NCI-H2122, 72 h
NCI-H1373 [8] = assay: Cytotoxicity against human NCI-H1373 cells harboring KRASG12C mutant assessed as reduction in cell viability measured after 72 hrs in presence of compound 1 by CellTiter-Glo luciferase-based ATP detection assay; settings: NCI-H1373, 72 h
NCI-H23 [9] = assay: Cytotoxicity against human NCI-H23 cells harboring KRASG12C mutant assessed as reduction in cell viability measured after 72 hrs in presence of compound 1 by CellTiter-Glo luciferase-based ATP detection assay; settings: NCI-H23, 72 h
NCI-H1792 [10] = assay: Cytotoxicity against human NCI-H1792 cells harboring KRASG12C mutant assessed as reduction in cell viability measured after 72 hrs in presence of compound 1 by CellTiter-Glo luciferase-based ATP detection assay; settings: NCI-H1792, 72 h

| SMILES | IC50 (NCI-H1792 [1]) [nM] | IC50 (NCI-H1373 [2]) [nM] | IC50 (NCI-H2122 [3]) [nM] | IC50 (NCI-H23 [4]) [nM] | IC50 (NCI-H358 [5]) [nM] | IC50 (NCI-H358 [6]) [nM] | IC50 (NCI-H2122 [7]) [nM] | IC50 (NCI-H1373 [8]) [nM] | IC50 (NCI-H23 [9]) [nM] | IC50 (NCI-H1792 [10]) [nM] |
| --- | --- | --- | --- | --- | --- | --- | --- | --- | --- | --- |
| C[C@H]1CNC(=O)c2cnn3ccc(nc23)N[C@H](C)c2cc(F)ccc2O1 [REPOTRECTINIB] | 1900 | 5000 | 1940 | 4060 | 2500 |  |  |  |  |  |
| C=CC(=O)N1CCN(c2nc(=O)n(-c3c(C)ccnc3C(C)C)c3nc(-c4c(O)cccc4F)c(F)cc23)[C@@H](C)C1 [SOTORASIB] | > 10000 | > 10000 |  | > 10000 | 213 | 3 | 90.5 | 356 | 1500 | 3000 |
